Results published in ChEMBL document CHEMBL4837250, “Discovery of LYC-55716: A Potent, Selective, and Orally Bioavailable Retinoic Acid Receptor-Related Orphan Receptor-γ (RORγ) Agonist for Use in Treating Cancer” (J Med Chem, 2021).
pEC50: −log10 of the molar value. Values after ≈ are worked out from the molar mass of the structure shown.

Columns and labels:
[1] = target: T1, Nuclear receptor ROR-gamma (Homo sapiens, UniProt P51449)
T1 sequence (P51449 whole entry): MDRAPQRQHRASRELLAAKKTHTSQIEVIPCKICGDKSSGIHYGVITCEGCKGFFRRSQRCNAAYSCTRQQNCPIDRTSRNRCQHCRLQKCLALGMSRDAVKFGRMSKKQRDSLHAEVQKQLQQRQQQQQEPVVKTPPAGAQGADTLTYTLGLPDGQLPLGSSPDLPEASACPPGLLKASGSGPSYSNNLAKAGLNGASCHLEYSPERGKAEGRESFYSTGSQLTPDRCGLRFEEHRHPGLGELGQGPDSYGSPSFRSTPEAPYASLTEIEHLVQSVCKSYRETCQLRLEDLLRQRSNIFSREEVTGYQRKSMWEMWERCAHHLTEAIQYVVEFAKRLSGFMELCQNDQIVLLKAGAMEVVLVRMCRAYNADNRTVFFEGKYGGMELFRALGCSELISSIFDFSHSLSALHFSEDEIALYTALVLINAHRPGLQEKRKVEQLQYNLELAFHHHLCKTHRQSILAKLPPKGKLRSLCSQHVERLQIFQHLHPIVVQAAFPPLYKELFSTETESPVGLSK
Description: Agonist activity at human His-tagged RORgamma-LBD expressed in Sf9 cells assessed as inhibition of N-terminal biotinylated co-activator SRC1 recruitment in presence of ursolic acid measured after 60 mins by FRET assay

physchem = details: PBS buffer, pH 7.4
Description: Solubility of the compound in pH 7.4 PBS buffer

CYP2D6 = CYP2D6 (Homo sapiens, UniProt P10635); assay: in vitro; details: probe testosterone
Sequence of CYP2D6 (P10635 whole entry): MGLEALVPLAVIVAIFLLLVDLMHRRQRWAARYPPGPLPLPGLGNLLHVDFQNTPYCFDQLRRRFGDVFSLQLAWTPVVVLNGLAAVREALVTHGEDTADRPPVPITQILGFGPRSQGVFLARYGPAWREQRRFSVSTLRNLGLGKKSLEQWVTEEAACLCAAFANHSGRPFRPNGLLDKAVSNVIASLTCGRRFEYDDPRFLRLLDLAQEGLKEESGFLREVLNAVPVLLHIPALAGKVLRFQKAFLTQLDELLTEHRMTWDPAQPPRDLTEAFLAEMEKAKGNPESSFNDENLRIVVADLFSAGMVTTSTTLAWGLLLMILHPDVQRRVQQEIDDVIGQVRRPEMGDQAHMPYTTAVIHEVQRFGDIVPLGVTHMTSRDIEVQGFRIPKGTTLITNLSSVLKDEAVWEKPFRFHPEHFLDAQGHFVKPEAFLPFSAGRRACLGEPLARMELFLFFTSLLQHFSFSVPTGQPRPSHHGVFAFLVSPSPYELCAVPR
Description: Inhibition of CYP2D6 (unknown origin) assessed as oxidation of testosterone at 10 uM

CYP3A4 = CYP3A4 (Homo sapiens, UniProt P08684); assay: in vitro; details: probe testosterone
Sequence of CYP3A4 (P08684 whole entry): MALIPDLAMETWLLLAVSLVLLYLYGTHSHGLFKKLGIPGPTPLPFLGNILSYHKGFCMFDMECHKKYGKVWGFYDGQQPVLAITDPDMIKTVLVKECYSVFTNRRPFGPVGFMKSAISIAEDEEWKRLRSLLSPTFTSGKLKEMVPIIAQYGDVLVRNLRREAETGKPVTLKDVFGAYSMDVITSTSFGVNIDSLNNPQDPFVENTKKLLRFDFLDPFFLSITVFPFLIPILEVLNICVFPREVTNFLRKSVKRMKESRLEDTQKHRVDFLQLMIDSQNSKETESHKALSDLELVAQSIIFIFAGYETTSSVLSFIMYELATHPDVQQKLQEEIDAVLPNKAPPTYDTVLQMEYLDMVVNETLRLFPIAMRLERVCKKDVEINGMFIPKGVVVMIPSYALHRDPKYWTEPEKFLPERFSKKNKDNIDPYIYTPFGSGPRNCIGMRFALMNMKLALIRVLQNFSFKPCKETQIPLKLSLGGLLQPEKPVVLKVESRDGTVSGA
Description: Inhibition of CYP3A4 (unknown origin) assessed as oxidation of testosterone at 10 uM

in vitro = details: human, hepatocytes
[2] = target: T2, Nuclear receptor subfamily 1 group I member 2 (Homo sapiens, UniProt O75469)
T2 sequence (O75469 whole entry): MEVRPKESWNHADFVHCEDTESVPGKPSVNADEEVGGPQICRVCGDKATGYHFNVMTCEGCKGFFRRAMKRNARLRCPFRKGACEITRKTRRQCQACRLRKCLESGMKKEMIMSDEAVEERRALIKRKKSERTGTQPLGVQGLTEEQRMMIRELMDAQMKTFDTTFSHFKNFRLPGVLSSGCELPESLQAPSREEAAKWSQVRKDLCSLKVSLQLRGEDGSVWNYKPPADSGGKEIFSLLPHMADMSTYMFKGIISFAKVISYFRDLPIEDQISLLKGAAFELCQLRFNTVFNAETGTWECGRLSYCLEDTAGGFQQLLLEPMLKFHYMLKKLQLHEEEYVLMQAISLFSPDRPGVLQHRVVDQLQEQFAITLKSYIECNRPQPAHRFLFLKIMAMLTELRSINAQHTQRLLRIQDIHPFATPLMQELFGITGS
Description: Agonist activity at human PXR-gamma expressed in HEK293 cells assessed as transcriptional activity in presence of ursolic acid by Gal4-luciferase reporter assay

[3] = target: T1, Nuclear receptor ROR-gamma; remark: listed apart in the source
Description: Agonist activity at human ROR-gamma LBD expressed in HEK293 cells assessed as transcriptional activity in presence of ursolic acid by Gal4-luciferase reporter assay

Row | SMILES | pEC50 [1] | solubility (physchem) | inhibition at 10 µM (CYP2D6) | inhibition at 10 µM (CYP3A4) | hepatocyte CLint (in vitro) | pEC50 [2] | pEC50 [3]
1 | O=C(O)C1(C[C@H]2CN(S(=O)(=O)c3cccc(C(F)(F)F)c3)c3cc(-c4cc(F)ccc4F)ccc3O2)CCOCC1 | 8.30 | 43 µM (≈ 25.7 µg/mL) | 8% | 5% | 21 µL/min/1e6 cells | < 5.00 | < 5.00
2 | C/C(=C\c1ccc2c(c1)N(S(=O)(=O)c1ccc(F)c(C(F)(F)F)c1)C[C@H](CCC(=O)O)O2)c1c(F)cccc1Cl | 7.07 | 61 µM (≈ 36.7 µg/mL) | – | – | 24 µL/min/1e6 cells | 5.22 | 6.39
3 | O=C(O)CC[C@H]1CN(S(=O)(=O)c2cccc(C(F)(F)F)c2)c2cc(-c3cccc(Cl)c3)ccc2O1 | – | – | 0% | 24% | – | < 5.00 | –
4 | O=C(O)CC[C@H]1CN(S(=O)(=O)c2cccc(C(F)(F)F)c2)c2cc(-c3cccc(F)c3)ccc2O1 | – | – | 0% | 19% | – | < 5.00 | –
5 | C/C(=C\c1ccc2c(c1)N(S(=O)(=O)c1cccc(OC(F)F)c1)C[C@H](CCC(=O)O)O2)c1c(F)cccc1Cl | 6.71 | 248 µM (≈ 144 µg/mL) | 2% | 9% | 9.4 µL/min/1e6 cells | 5.04 | 6.55
6 | O=S(=O)(c1cccc(C(F)(F)F)c1)N1C[C@H](CC2(CO)COC2)Oc2ccc(Br)cc21 | – | – | – | – | – | < 5.00 | –
7 | O=C(O)CC[C@H]1CN(S(=O)(=O)c2cccc(C(F)(F)F)c2)c2cc(-c3cc(F)cc(F)c3)ccc2O1 | – | 277 µM (≈ 146 µg/mL) | – | 25% | 31 µL/min/1e6 cells | < 5.00 | –
8 | C[C@H](C[C@H]1CN(S(=O)(=O)c2cccc(C(F)(F)F)c2)c2cc(-c3cc(F)ccc3F)ccc2O1)C(=O)O | – | – | 11% | 18% | – | < 5.00 | –
9 | C/C(=C\c1ccc2c(c1)N(S(=O)(=O)c1cccc(C(F)(F)F)c1)C[C@H](CCC(=O)O)O2)c1c(Cl)cccc1Cl | 6.36 | 309 µM (≈ 186 µg/mL) | -1% | 6% | 23 µL/min/1e6 cells | < 5.00 | 6.31
10 | O=C(O)CC[C@H]1CN(S(=O)(=O)c2cccc(C(F)(F)F)c2)c2cc(-c3cccc(OCCO)c3)ccc2O1 | < 5.00 | – | – | – | – | < 5.00 | < 5.00
11 | O=C(O)CC[C@H]1CN(S(=O)(=O)c2cccc(C(F)(F)F)c2)c2cc(/C=C/c3ccc(Cl)cc3F)ccc2O1 | 6.47 | – | – | – | – | < 5.00 | < 5.00
12 | COc1cc(S(=O)(=O)N2C[C@H](CCC(=O)O)Oc3ccc(/C=C(\C)c4c(F)cccc4Cl)cc32)ccc1F | – | – | 10% | -0.5% | – | < 5.00 | –
13 | O=C(O)CC[C@H]1CN(S(=O)(=O)c2cccc(C(F)(F)F)c2)c2cc(-c3cc(F)cc(OC(F)F)c3)ccc2O1 | – | – | -6% | 5% | – | < 5.00 | –
14 | O=C(O)[C@@H](O)CC[C@H]1CN(S(=O)(=O)c2cccc(C(F)(F)F)c2)c2cc(-c3cc(F)ccc3F)ccc2O1 | 7.89 | – | – | – | 18 µL/min/1e6 cells | < 5.00 | 6.30
15 | COc1cccc(-c2ccc3c(c2)N(S(=O)(=O)c2cccc(C(F)(F)F)c2)C[C@H](CCC(=O)O)O3)c1 | – | 280 µM (≈ 146 µg/mL) | 2% | 19% | 44 µL/min/1e6 cells | < 5.00 | –
16 | C[C@@H](C[C@H]1CN(S(=O)(=O)c2cccc(C(F)(F)F)c2)c2cc(-c3cc(F)ccc3F)ccc2O1)C(=O)O | – | – | 13% | 17% | – | < 5.00 | –

Row | SMILES | pEC50 [1] | solubility (physchem) | inhibition at 10 µM (CYP2D6) | inhibition at 10 µM (CYP3A4) | hepatocyte CLint (in vitro) | pEC50 [2] | pEC50 [3]
17 | O=C(O)C1(C[C@H]2CN(S(=O)(=O)c3cccc(C(F)(F)F)c3)c3cc(-c4cccc(Cl)c4F)ccc3O2)CCOCC1 | 7.62 | 93 µM (≈ 57.1 µg/mL) | 9% | 36% | 13 µL/min/1e6 cells | < 5.00 | 6.99
18 | C/C(=C\c1ccc2c(c1)N(S(=O)(=O)c1cccc(C(F)(F)F)c1)C[C@H](CCC(=O)O)O2)c1ccccc1Cl | – | 309 µM (≈ 175 µg/mL) | 13% | 7% | 22 µL/min/1e6 cells | < 5.00 | –
19 | O=C(O)CC[C@H]1CN(S(=O)(=O)c2cccc(C(F)(F)F)c2)c2cc(-c3cc(F)ccc3F)ccc2O1 | 8.10 | 227 µM (≈ 120 µg/mL) | 1% | 13% | 31 µL/min/1e6 cells | < 5.00 | 6.74
20 | C/C(=C\c1ccc2c(c1)N(S(=O)(=O)c1cccc(C(F)(F)F)c1)C[C@H](CCC(=O)O)O2)c1ccccc1C(F)(F)F | 6.97 | 260 µM (≈ 156 µg/mL) | 2% | 18% | 23 µL/min/1e6 cells | < 5.00 | 6.54
21 | CC(C)(C[C@H]1CN(S(=O)(=O)c2cccc(C(F)(F)F)c2)c2cc(-c3cccc(Cl)c3F)ccc2O1)C(=O)O | – | – | 6% | 28.5% | – | < 5.00 | –
22 | COc1ccccc1/C(C)=C/c1ccc2c(c1)N(S(=O)(=O)c1cccc(C(F)(F)F)c1)C[C@H](CCC(=O)O)O2 | – | 183 µM (≈ 103 µg/mL) | 3% | 19% | 33 µL/min/1e6 cells | < 5.00 | –
23 | C/C(=C\c1ccc2c(c1)N(S(=O)(=O)c1cccc(C(F)(F)F)c1)C[C@H](CCC(=O)O)O2)c1ccccc1 | – | 267 µM (≈ 142 µg/mL) | 3% | -3% | 22 µL/min/1e6 cells | < 5.00 | –
24 | C/C(=C\c1ccc2c(c1)N(S(=O)(=O)c1cccc(C(F)(F)F)c1)C[C@H](CCC(=O)O)O2)c1ccccc1C | – | – | -6% | 0% | – | – | –
25 | C/C(=C\c1ccc2c(c1)N(S(=O)(=O)c1ccc(F)c(C3CC3)c1)C[C@H](CCC(=O)O)O2)c1c(F)cccc1Cl | 6.57 | 250 µM (≈ 144 µg/mL) | 10% | 4% | 11 µL/min/1e6 cells | 5.17 | 6.31
26 | O=C(O)CC[C@H]1CN(S(=O)(=O)c2cccc(C(F)(F)F)c2)c2cc(/C=C/c3c(F)cccc3Cl)ccc2O1 | 7.48 | 273 µM (≈ 156 µg/mL) | -5.6% | 33% | 26 µL/min/1e6 cells | < 5.00 | 6.21
27 | O=C(O)C1(C[C@H]2CN(S(=O)(=O)c3cccc(C(F)(F)F)c3)c3cc(-c4cc(F)ccc4F)ccc3O2)COC1 | 8.00 | 201 µM (≈ 114 µg/mL) | – | – | – | 4.74 | 6.75
28 | O=C(O)[C@H](O)CC[C@H]1CN(S(=O)(=O)c2cccc(C(F)(F)F)c2)c2cc(-c3cc(F)ccc3F)ccc2O1 | 6.92 | – | – | – | 13 µL/min/1e6 cells | < 5.00 | 6.78
29 | COc1cc(F)cc(-c2ccc3c(c2)N(S(=O)(=O)c2cccc(C(F)(F)F)c2)C[C@H](CCC(=O)O)O3)c1 | – | – | – | – | – | < 5.00 | –
30 | O=C(O)CC[C@H]1CN(S(=O)(=O)c2cccc(C(F)(F)F)c2)c2cc(-c3ccc(Cl)cc3)ccc2O1 | 7.57 | 15 µM (≈ 7.89 µg/mL) | -2% | 14% | 38 µL/min/1e6 cells | – | –
31 | CC(C)c1ccc(-c2ccc3c(c2)N(S(=O)(=O)c2cccc(C(F)(F)F)c2)C[C@H](CCC(=O)O)O3)cc1 | 7.38 | – | 2% | -4% | 31 µL/min/1e6 cells | < 5.00 | < 5.00
